This note sets out measurements from patent publication US20240358672A1, “APPLICATION OF GENISTEIN AND ITS PHOSPHATE ESTER DERIVATIVE AND PHARMACEUTICAL COMPOSITION COMPRISING THE SAME” (National Taiwan University, priority 2023, published 2024).

Series [1] concerns C57BL/6J mice. Format: in vivo. The protocol: (§1) FIG. 7A: Isometric tension recordings of isolated mice thoracic aortas were performed using a wire myograph. Vascular concentration-dependent relaxation was induced by acetylcholine (ACh) in pre-constricted mouse thoracic arteries. […] FIG. 7C: Luminex analysis of inflammatory cytokines in plasma of C57BL/6J mice treated with vehicle control, Δ^9-THC, or Δ^9-THC plus genistein. […] FIG. 7E: Effect of Δ^9-THC and genistein on NF-κB phosphorylation in mouse thoracic artery. Total cell lysates were prepared, and the expressions of phosphor-NF-κB were analyzed by ELISA (upper left). Superoxide dismutase (SOD) activity of serum from mouse (bottom left). The effect of Δ^9-THC and genistein on NF-κB phosphorylation in mouse thoracic artery tissues (n=5). Total cell lysates were prepared, and the expressions of NF-κB, phosphorylated NF-κB, and β-actin were analyzed by western blot analysis (right panel). FIG. 7F: The levels reduced glutathione (GSH), Oxidized glutathione (GSSG), Total glutathione (T-GSH) and GSH/GSSG in the serum samples of mice were detected. Plasma isolated from C57BL/6J mice (n=5) treated with vehicle control, Δ^9-THC, genistein, or their combination every day for 30 days was analyzed by the glutathione colorimetric assay kit (BioVision, K261).
Genistein also rescued the oxidative stress protective-related gene expression (FIG. 7D). In addition, NF-κB phosphorylation and SOD expression in mouse serum were also attenuated with genistein (FIG. 7E). Δ^9-THC administration decreased circulating levels of the antioxidant glutathione, which was ameliorated with genistein cotreatment (FIG. 7F).

The subject of series [2] is C57BL/6J mice. Description: Neurobehavioral tetrad (Billy Martin tetrad) in mice. How it is done: FIG. 13 illustrate the effect of genistein on the neurobehavioral effects of Δ^9-THC according to Example 12. C57BL/6J mice were exposed to (1) vehicle control (intraperitoneal [i.p.], and oral [p.o.], n=8), (2) Δ^9-THC at 20 mg/kg i.p. and p.o. vehicle (n=9), (3) genistein at 50 mg/kg p.o. and i.p. vehicle (n=8), and (4) combination of Δ^9-THC at 20 mg/kg i.p. and genistein at 50 mg/kg p.o. (n=9). […] Hypothermia was assessed by measuring body temperature using a rectal probe before and 60 min after treatment. The catalepsy test measures the time a mouse remained immobile on the bar. Analgesia was measured by placing mice on a hot plate and recording the time for the mouse to withdraw or lick.
These are described as the Billy Martin tetrad.
Therefore, the neurological effects of Δ^9-THC and genistein co-administration were tested in C57BL/6J mice treated with vehicle, genistein, Δ^9-THC, or in combination. The tetrad effects were assessed using an activity chamber for mobility, a hot plate for analgesia, a rectal probe for hypothermia, and the bar test for […].

The subject of series [3] is C57BL/6J mice. Kind of series: Echocardiographic analysis of mice. How it is done:
(§2) FIG. 8A to 8C illustrate the effects of genistein and Δ^9-THC on cardiac contraction in vivo or in vitro experiments according to Example 9. […] After treatment exposure, the contractility, relaxation and peak force of EHT were measured using the Sony imaging platform. FIG. 8B: Same as the former, analysis of heart rate and contraction-relaxation (CR) interval (48 hours). […] Mice were anesthetized with 1%-2% isoflurane, and images were acquired in the parasternal long-axis (PLA) and parasternal short axis (PSA) on a Visualsonic Vevo 2100 platform. The ventricular (LV) dimensions were traced offline, and the ejection fraction (EF) was calculated using Simpson's biplane method of discs.
(§3) The inventor used engineered heart tissues (EHTs) composed of hiPSC-ECs and hiPSC-derived cardiomyocytes (hiPSC-CMs) to interrogate the effects of genistein and Δ^9-THC on contractility in vitro.

For another series, the system named is mouse thoracic arteries. Kind of series: Wire myograph of isolated mouse thoracic aortas. Format: in vivo, C57BL/6J mice. How it is done:
as §1

Series [4] relates to hiPSC-ECs. Kind of series: Western blot / immunofluorescence of p38 and NF-κB (p65) in hiPSC-ECs. The conditions noted are these: 48 hours.
The test system of series [5] is hiPSC-ECs. Kind of series: qPCR gene expression in hiPSC-ECs. Format: cell-based, human. The conditions noted are these: 48 hours. A general note: In qPCR the cycle at which signal appears reflects the starting amount.
In series [6] the test system is engineered heart tissues (EHTs) composed of hiPSC-ECs and hiPSC-CMs. Description: Engineered heart tissues (EHTs) contractility. How it is done: as §2, §3
The next series deals with Apoe^−/− mice. Kind of series: Apoe−/− partial carotid artery ligation (PCAL) atherosclerosis model. Format: in vivo, mouse. The note with it: HFD 10 days. The text has this: FIG. 10A to 10C illustrate the effects of Δ^9-THC and genistein on the treatment of atherosclerosis in vivo using the Apoe^−/− mouse model according to Example 10. FIG. 10A: Gross images of carotid arteries after oil red O staining are shown (left panel). The scale bar represents 1 mm. A diagram of partial ligation of the carotid artery is shown (right panel). […] The right subclavian artery (RSA), right common carotid artery (RCA), and left subclavian artery (LSA) were unligated and remained patent. FIG. 10B: Carotid artery sections were counterstained with hematoxylin and eosin (H&E), and a representative slide was presented with scale bars at 100 μm (left panel). Oil red O staining of atherosclerotic plaques in cross-section of mouse carotid artery with scale bar at 100 μm. The atherosclerotic plaques were quantified (right panel). FIG. 10C: Carotid artery sections were immunostained with an anti-F4/80 antibody. […] Quantification of F4/80-positive area within carotid artery sections (top right). Carotid artery sections were immunostained with an anti-CD68 antibody. […] Quantification of CD68-positive area within carotid artery sections is shown (bottom right).
Further, an Apoe^−/− mouse model was also employed to investigate the effects of Δ^9-THC and cotreatment with genistein on atherosclerosis. Partial carotid artery ligation (PCAL) was performed in Apoe^−/− mice at 10-16 weeks. […] All mice were fed a HFD for 10 days. At the end of the treatment protocol, the Apoe^−/− mice were euthanized and subjected to histological analysis. […] Macrophage recruitment was tested using the macrophage-specific F4/80 antibody and CD68 antibody. […] Consistent with the Ldlr^−/− model findings, the Apoe^−/− PCAL mouse model found increased plaque size and increased macrophage recruitment with Δ^9-THC, and genistein cotreatment ameliorated these indices of atherosclerosis in ligated carotid arteries.

Where [7] appears, read: single agent: Δ^9-THC 1 mg/kg i.p. or genistein 50 mg/kg p.o.
The mark [8] stands for this setting: Δ^9-THC 1 mg/kg plus genistein 50 mg/kg.
The mark [9] stands for this setting: 10 μM genistein with 5 μM Δ^9-THC.

Read-outs that look alike come from different tables or passages of the source.

With `O=c1c(-c2ccc(O)cc2)coc2cc(O)cc(O)c12` [genistein], in the series with C57BL/6J mice [1] (Δ^9-THC 1 mg/kg plus genistein 50 mg/kg or rimonabant 3 mg/kg), the “Δ^9-THC-induced mRNA expressions of inflammation-related genes in mouse thoracic artery tissues” value is on record as “ameliorated”. For the same molecule, in the series with C57BL/6J mice [1] (Δ^9-THC plus genistein), the “NF-κB phosphorylation in mouse thoracic artery” value is “attenuated”, the “SOD expression in mouse serum” value was “attenuated” and the “oxidative stress protective-related gene expression in thoracic artery tissues” value is listed as “rescued”. Besides, in the series with C57BL/6J mice [1] (Δ^9-THC plus genistein cotreatment), the “plasma IL-6, IL-3 and IL-10 (Luminex)” value is reported as “significantly reduced”. The “Δ^9-THC-decreased circulating glutathione” value with C57BL/6J mice [1] (Δ^9-THC plus genistein cotreatment, every day for 30 days) is recorded as “ameliorated”. In addition, in the series on C57BL/6J mice [2] (genistein 50 mg/kg p.o. alone), the tetrad effects entry is recorded as “did not affect tetrad effects”. The “Δ^9-THC neurobehavioral effects” value with C57BL/6J mice [2] (Δ^9-THC 20 mg/kg i.p. and genistein 50 mg/kg p.o.) is “could not attenuate”. Moreover, the “cardiac structure or function (EF, HR, LVEDV, LVEDM)” value (shortened to “cardiac structure or function”) in the series on C57BL/6J mice [3] (cotreatment Δ^9-THC 1 mg/kg i.p. and genistein 50 mg/kg p.o.) is given as “did not affect cardiac structure or function”. The “cardiac structure or function” value with C57BL/6J mice [3] (setting [7]) is reported as “did not affect cardiac structure or function”. Besides, the “Δ^9-THC-induced endothelial dysfunction” value in the series with mouse thoracic arteries (setting [8]) is recorded as “mitigated the effect”. Moreover, in the series on hiPSC-ECs [4] (setting [9]), the “Δ^9-THC-induced NF-κB phosphorylation” value was “attenuated NF-κB phosphorylation” and the “Δ^9-THC-induced p38 phosphorylation” value is “decreased”. Besides, in the series with hiPSC-ECs [5] (setting [9]), the “NOS2 and NOX1 expression” value is listed as “salutatory effect”; the “Δ^9-THC-induced TLR4 expression” value is “disrupted its expression”. Moreover, in series [6], the “contraction, relaxation, and peak force of EHTs” value is “no significant effect”; the “Δ^9-THC effects on beat rate and contraction-relaxation interval” value was “did not attenuate these effects”. For the same molecule, in the series on Apoe^−/− mice (setting [8]), the “CD68-positive area in ligated carotid artery” value was “reduced”, the “F4/80-positive area in ligated carotid artery” value is on record as “decreased” and the “plaque size in ligated carotid artery (oil red O)” value was “ameliorated the plaque size”.

As for `CCCCCc1cc(O)c2c(c1)OC(C)(C)[C@@H]1CCC(C)=C[C@@H]21` [Δ^9-THC, Δ^9-tetrahydrocannabinol], the “plasma IL-6, IL-3 and IL-10 (Luminex)” value in the series on C57BL/6J mice [1] (Δ^9-THC alone) is “elevated”. In the series on C57BL/6J mice [1] (Δ^9-THC alone, every day for 30 days), the “circulating levels of the antioxidant glutathione” value is on record as “decreased”. In the series with C57BL/6J mice [2] (Δ^9-THC 20 mg/kg i.p.), the “analgesia (hot plate)” value is listed as “analgesia”, the “hypothermia (rectal probe)” value is listed as “hypothermia”, the “mobility (activity chamber)” value is listed as “decreased mobility” and the “sedation (bar test)” value was “sedation”. In addition, the “cardiac structure or function” value in the series on C57BL/6J mice [3] (setting [7]) is reported as “did not affect cardiac structure or function”. The “endothelial function (ACh-induced relaxation)” value with mouse thoracic arteries (Δ^9-THC 1 mg/kg) is reported as “induced endothelial dysfunction”. For the same molecule, in the series with hiPSC-ECs [4] (5 μM Δ^9-THC alone), the “p65 (NF-κB) phosphorylation” value was “caused p65 phosphorylation” and the “phosphorylation of p38” value is reported as “increased phosphorylation of p38”. Moreover, the “nuclear translocation of NF-κB (p65)” value with hiPSC-ECs [4] (5 μM Δ^9-THC) is on record as “induced”. Further, in the series with hiPSC-ECs [5] (5 μM Δ^9-THC alone), the TLR4 expression result is reported as “induced TLR4 expression”; the “expression of ROS-related genes NOX1 and NOS2” value is reported as “upregulated”; the “mRNA expression of antioxidant-related genes (SOD1, SOD2, CAT, GPX1)” value is on record as “decreased mRNA expression”. Moreover, in the series on hiPSC-ECs [5] (Δ^9-THC alone), the “expression of I kappa B (NFKBIA)” value is “inhibited”; the “expression of proinflammatory cytokines and chemokines” value is recorded as “increased”. For the same molecule, in series [6] (5 μM Δ^9-THC, 48 hours), the “beat rate of EHTs” value was “decreased beat rate” and the “contraction-relaxation interval of EHTs” value is given as “increased the contraction-relaxation interval”. In addition, in the series on Apoe^−/− mice (Δ^9-THC 1 mg/kg), the “CD68-positive area in ligated carotid artery” value is “significantly increased”, the “F4/80-positive area in ligated carotid artery” value is listed as “significantly increased” and the “plaque area in ligated carotid artery (oil red O)” value is given as “increased”.
